What all share (format): cell-based
The subject of one data set is NF-κB p65. The experiment in a line: Immunofluorescence imaging of NF-κB p65 after TNFα activation. Particulars: for effect on p65 fluorescence signal: LCL3, 10 μM, 24 h, TNFα 10 ng/ml preincubation. The method, then: (§1) We then investigate the inhibitory effects of our anti-LMP1 conjugates on the NF-κB pathway, which is one of the major pathways that EBV has hijacked for promoting cell growth and proliferation in EBV-associated tumours. Since NF-κB is typically activated by the canonical pathway which involves the nuclear translocation of the heterodimer of p50 and p65, immunofluorescence imaging of NF-κB p65 was then performed. Tumour necrosis factor alpha (TNFα) was added to these tumour cells, so as to activate the NF-κB pathway.
These assays were prepared and conducted at room temperature, unless otherwise stated. Cells with different treatment were fixed by formalin for 15 min. The samples were then washed with PBS and 0.2% Triton-X buffer was added onto the samples for 15 min. 3% BSA in PBS was served as the blocking buffer and applied onto the sample for 30 minutes at room temperature. The primary antibody was diluted in blocking buffer and added onto the sample at 4° C. overnight. The samples were washed with PBS and corresponding secondary antibodies were added over 1 h. Samples were washed with PBS and mountant was applied to each sample. Images were acquired either using a 370 nm laser excitation or from a 370 nm LED excitation of a Nikon Eclipse Ti2 Confocal Microscope. NIR images were captured by a NIRvana TE 640 camera. The signal enhancement of the C666-1 images were obtained by enhancing the exposure of the captured images by the NIS element AR software. Multiphoton microscopy was conducted by Leica TCS SP8 MP System.

In the next data set the test system is NF-κB p65 and p50. The experiment in a line: Western blot of nuclear NF-κB p65 and p50. Particulars: for nuclear p65 and p50 expression: LCL3 and AFB1, TNFα 10 ng/mL pre-treatment, compared with control. The protocol: Western blot analysis was also carried out to validate the above imaging results for the components in NF-κB pathway. The LMP1-overexpressing LCL3 and AFB1 cell lines were used for this analysis. […] After 24 hours incubation, the nuclear extracts were separated for each treatment, and the expression of NF-κB p65 and p50 was detected by Western blot analysis. […] Western blots of individual replicates for NF-κB p65 and p50 in different cell lines were illustrated in FIG. 14. […] The reduction in NF-κB activity can contribute to the cytotoxicity of the three compounds towards LMP1-overexpressing cells.
Cells with different treatments were harvested and washed with phosphate-buffered saline (PBS). Lysis buffer supplied by 1X proteases-phosphatase inhibitor were added into the cells for 5 min on ice. Then the samples were centrifuged at 14,000×g at 4° C. for 20 minutes. The fractionated cell lysates were subjected to SDS-PAGE gel and transferred onto PVDF membranes. Membranes were then blocked by 3% non-fat milk for 30 minutes at room temperature and incubated with specific primary antibodies at 4° C. overnight. They were then washed with TBST buffer and incubated with corresponding secondary antibodies for 1 h at room temperature. Then, the membranes were washed with TBST, and chemiluminescence substrate was added onto the membrane surface. ChemiDoc XRS system and Image Lab Software were used to visualize the blot.
(In western blotting, separated proteins are transferred to a membrane and probed.)

Data set [1] relates to weakly LMP1-positive (C666-1) and LMP1-negative cell lines (HeLa, MRCS). The experiment in a line: MTT cytotoxicity assay, weakly LMP1-positive or LMP1-negative cells. The method, then:
(§2) To study the effects of the designed probes on cell survival, the MTT cytotoxicity assay was carried out in several highly LMP1-positive (LCL3, AFB1, AG876), weakly LMP1-positive (C666-1) and LMP1- negative cell lines (HeLa, MRCS), as shown in FIG. 9.
(§3) LCL3, AG876, AFB1 and C666-1 cells were grown in RPMI-1640 medium. HeLa cells were cultivated in DMEM medium and MRCS cells are cultivated in MEM medium (Gibco, USA). All media are supplemented with 10% fetal bovine serum and 1% penicillin/streptomycin antibiotics. All the cells are cultivated in a humidified incubator with 5% CO2 at 37° C. The pTRE-EGFP plasmid was transduced into LCL3 cells as previously mentioned.

The next data set concerns NF-κB activity. The experiment in a line: pTRE-EGFP reporter of NF-κB activity in LCL3 cells. Particulars: LCL3, 6 hours. The protocol: as §1
The antibodies including anti-LMP1 were purchased from Kerafast, while anti-NF-κB p65, anti-NF-κB p105/50, anti-histone H3, anti-GAPDH were purchased from Cell Signaling Technology. Anti-rabbit IgG HRP-linked, anti-mouse IgG HRP-linked, protease/phosphatase inhibitor cocktail were purchased from Cell Signaling Technology. Alexa Fluor 488-conjugated goat anti-mouse IgG, NucBlue fixed cell ready probes (DAPI), and ProLong gold antifade mountant with DAPI were purchased from Invitrogen. The transcriptional response element (TRE)-fluorescent protein reporter, pTRE-EGFP plasmid, was constructed as previously reported.
LCL3, AG876, AFB1 and C666-1 cells were grown in RPMI-1640 medium. HeLa cells were cultivated in DMEM medium and MRCS cells are cultivated in MEM medium (Gibco, USA). All media are supplemented with 10% fetal bovine serum and 1% penicillin/streptomycin antibiotics. […]

A short description of data set [2]: MTT cytotoxicity assay, all selected cell lines. Particulars: read-out: LC50 (the source's name). The method, then:
as §2, §3
(In general: Formazan colour is commonly taken as a measure of viable cells.)

Molecules are shown by their SMILES. Where a SMILES comes first, the peptide text is derived from it. [ ]: non-standard residue; d: D form. dPra = C#CC[C@@H](N)C(=O)O; Ahx = NCCCCCC(=O)O

Turning to `C#CC[C@@H](N)C(=O)N[C@@H](CCCCN)C(=O)NCCCCCC(=O)N[C@@H](CCCCN)C(=O)N[C@@H](CC(C)C)C(=O)N[C@@H](CC(=O)O)C(=O)N[C@@H](CC(C)C)C(=O)N[C@@H](C)C(=O)N[C@@H](CC(C)C)C(=O)N[C@@H](CCCCN)C(=O)N[C@@H](Cc1ccccc1)C(=O)N[C@@H](Cc1c[nH]c2ccccc12)C(=O)N[C@@H](CC(C)C)C(=O)N[C@@H](Cc1ccc(O)cc1)C(=O)N[C@@H](CCCCN)C(=O)N[C@H](C(=O)N[C@H](C(=O)N[C@@H](CCSC)C(=O)N[C@@H](CO)C(=O)N[C@@H](CC(=O)O)C(=O)N[C@@H](CCCCN)C(=O)N[C@@H](Cc1c[nH]c2ccccc12)C(=O)N[C@@H](CCCCN)C(=O)N[C@@H](CCCNC(=N)N)C(=O)N[C@H](CCCNC(=N)N)C(=O)N[C@@H](CCCNC(=N)N)C(=O)N[C@@H](CCCCN)C(=O)O)C(C)C)[C@@H](C)CC` [P19, Pra-KAhx-K-LDLALK-FWLY-K-IVMSDKW-K-RrRK] (H-[dPra]K[Ahx]KLDLALKFWLYKIVMSDKWKR[dR]RK-OH; N-terminus and C-terminus assumed), in the data set on NF-κB p65, the “effect on p65 fluorescence signal” value was “significant suppression”. Also, the “effect on NF-κB pathway (p65 fluorescence)” value in the data set with NF-κB p65 (LMP1-negative HeLa and weak LMP1-expressing C666-1 cells) is given as “did not exhibit any effect”. The “changes in expression of p65 and p50” value with NF-κB p65 and p50 (C666-1 and HeLa cells) was “relatively minor”. Further, the “nuclear p65 and p50 expression” value in the data set on NF-κB p65 and p50 is recorded as “significantly weakened”. Also, in data set [1], the cytotoxicity result is on record as “relatively low”. In addition, the GFP reporter signals result in the data set with NF-κB activity is “decreased”.
As to `C#CC[C@@H](N)C(=O)N[C@@H](CCCCN)C(=O)NCCCCCC(=O)N[C@@H](CCCCN)C(=O)N[C@@H](CC(C)C)C(=O)N[C@@H](CC(=O)O)C(=O)N[C@@H](CC(C)C)C(=O)N[C@@H](C)C(=O)N[C@@H](CC(C)C)C(=O)N[C@@H](CCCCN)C(=O)N[C@@H](C)C(=O)N[C@@H](C)C(=O)N[C@@H](C)C(=O)N[C@@H](C)C(=O)N[C@@H](CCCCN)C(=O)N[C@H](C(=O)N[C@H](C(=O)N[C@@H](CCSC)C(=O)N[C@@H](CO)C(=O)N[C@@H](CC(=O)O)C(=O)N[C@@H](CCCCN)C(=O)N[C@@H](Cc1c[nH]c2ccccc12)C(=O)N[C@@H](CCCCN)C(=O)N[C@@H](CCCNC(=N)N)C(=O)N[C@H](CCCNC(=N)N)C(=O)N[C@@H](CCCNC(=N)N)C(=O)N[C@@H](CCCCN)C(=O)O)C(C)C)[C@@H](C)CC` [P19C, reference compound] (H-[dPra]K[Ahx]KLDLALKAAAAKIVMSDKWKR[dR]RK-OH; N-terminus and C-terminus assumed), in the data set on NF-κB p65, the “effect on p65 fluorescence signal” value is given as “no significant effect”. Moreover, the “nuclear p65 and p50 expression” value in the data set on NF-κB p65 and p50 is reported as “no obvious change”. In data set [2], the CC50 was greater than 200 µM.

Source of the values: patent US20230097293A1, “LMP1 TARGETING LANTHANIDE COMPLEXES AND METHODS OF USE THEREOF” (BP InnoMed Limited, priority 2021, published 2023).
